Numbered stars: 1 amine (or outer) side, 2 acyl side, 3 side chain; on linkers, the order of the positions; unused ones are H or OH. Bridge positions count the residues as written; N and C are the ends. Square brackets hold non-standard residues; d marks the D form. Side chains are listed from the residue outwards. Peptide text beside a SMILES is read from it. * marks the point of attachment. Trp(1-CH2CO2Me) = COC(=O)Cn1cc(C[C@H](N)C(=O)O)c2ccccc21; Trp(1-CH2COOH) = N[C@@H](Cc1cn(CC(=O)O)c2ccccc12)C(=O)O; NHCH2CH2Ph(3,4-OCH2O) = c1cc2c(cc1CCN*)OCO2; X12 = CNC(=S)NCC[C@H](N[*:1])C(=O)[*:2]; X11 = CNC(=S)NC[C@H](N[*:1])C(=O)[*:2]; NHCH2CHPh2 = c1ccc(C(CN*)c2ccccc2)cc1; Dab(CONH2) = NC(=O)NCC[C@H](N)C(=O)O; NHCHPh2 = c1ccc(C(N*)c2ccccc2)cc1; Hyp = O=C(O)[C@@H]1C[C@@H](O)CN1; NMeNle = CCCC[C@H](NC)C(=O)O; NMeA = CN[C@@H](C)C(=O)O; Dab = NCC[C@H](N)C(=O)O; Dap = NC[C@H](N)C(=O)O; NH(heptyl) = CCCCCCCN*; CO = O=C([*:1])[*:2]; N(Me)OMe = CON(C)*; X1 = CC(=O)NC(=O)*
These compounds were tested against T1, PD-1/PD-L1 (Homo sapiens, UniProt Q9NZQ7) (assay: PD-1/PD-L1 Homogenous Time-Resolved Fluorescence (HTRF) binding assay). Details: PD-L1-His 10 nM final, PD-1-Ig 20 nM final; inhibitors pre-incubated with PD-L1-His for 15 m.
T1 construct: TVMV protease site linker (C); made in house; host or cells: HEK293T cells
From the text: The ability of the compounds of formula (I) to bind to PD-L1 was investigated using a PD-1/PD-L1 Homogenous Time-Resolved Fluorescence (HTRF) binding assay.
The interaction of PD-1 and PD-L1 can be assessed using soluble, purified preparations of the extracellular domains of the two proteins. The PD-1 and PD-L1 protein extracellular domains were expressed as fusion proteins with detection tags, for PD-1, the tag was the Fc portion of Immunoglobulin (PD-1-Ig) and for PD-L1 it was the 6 histidine motif (PD-L1-His). All binding studies were performed in an HTRF assay buffer consisting of dPBS supplemented with 0.1% […] bovine serum albumin and 0.05% (v/v) Tween-20. For the h/PD-L1-His binding assay, inhibitors were pre-incubated with PD-L1-His (10 nM final) for 15 m in 4 μl of assay buffer, followed by addition of PD-1-Ig (20 nM final) in 1 μl of assay buffer and further incubation for 15 m. HTRF detection was achieved using europium cryptate-labeled anti-Ig (1 nM final) and allophycocyanin (APC) labeled anti-His (20 nM final). Antibodies were diluted in HTRF detection buffer and 5 μl was dispensed on top of the binding reaction. The reaction mixture was allowed to equilibrate for 30 minutes and the resulting signal (665 nm/620 nm ratio) was obtained using an EnVision fluorometer. Additional binding assays were established between the human proteins PD-1-Ig/PD-L2-His (20 & 5 nM, respectively) and CD80-His/PD-L1-Ig (100 & 10 nM, respectively).
Recombinant Proteins: Human PD-1 (25-167) with a C-terminal human Fc domain of immunoglobulin G (Ig) epitope tag [hPD-1 (25-167)-3S-IG] and human PD-L1 (18-239) with a C-terminal His epitope tag [hPD-L1(18-239)-TVMV-His] were expressed in HEK293T cells and purified sequentially by Protein A affinity chromatography and size exclusion chromatography. Human PD-L2-His and CD80-His was obtained through commercial sources.
Table 3 lists the IC50 values for representative examples of this disclosure measured in the PD-1/PD-L1 Homogenous Time-Resolved Fluorescence (HTRF) binding assay.

IC50 [nM] | Compound
2 | CCCC[C@H]1C(=O)N(C)[C@@H](CCCC)C(=O)N[C@@H](CC(C)C)C(=O)N[C@H](C(=O)NCC(N)=O)CSCC(=O)N[C@@H](Cc2ccc(O)cc2)C(=O)N(C)[C@@H](C)C(=O)N[C@H](CC(N)=O)C(=O)N2CCC[C@H]2C(=O)N[C@@H](CNC(=S)NC)C(=O)N[C@@H](CC(C)C)C(=O)N2C[C@H](O)C[C@H]2C(=O)N[C@@H](Cc2c[nH]c3ccccc23)C(=O)N[C@@H](CCNC(=S)NC)C(=O)N[C@@H](Cc2cn(CC(=O)O)c3ccccc23)C(=O)N1C [Example 1027] ({CH2CO}-Y[NMeA][dN]P[X11]L[Hyp]W[X12][Trp(1-CH2COOH)][NMeNle][NMeNle]LCG-NH2; thioether N-14)
4.9 | CCCC[C@H]1C(=O)N(C)[C@@H](CCCC)C(=O)N[C@@H](CC(C)C)C(=O)N[C@H](C(=O)NCC(N)=O)CSCC(=O)N[C@@H](Cc2ccc(O)cc2)C(=O)N(C)[C@@H](C)C(=O)N[C@@H](CC(N)=O)C(=O)N2CCC[C@H]2C(=O)N[C@@H](CNC(=O)NCC)C(=O)N[C@@H](CC(C)C)C(=O)N2C[C@H](O)C[C@H]2C(=O)N[C@@H](Cc2c[nH]c3ccccc23)C(=O)N[C@@H](CCNC(=O)NCC)C(=O)N[C@@H](Cc2cn(CC(=O)O)c3ccccc23)C(=O)N1C [Example 1029] ({CH2CO}-Y[NMeA]NP[Dap]([CO-NHEt])L[Hyp]W[Dab]([CO-NHEt])[Trp(1-CH2COOH)][NMeNle][NMeNle]LCG-NH2; thioether N-14)
4 | CCCC[C@H]1C(=O)N(C)[C@@H](CCCC)C(=O)N[C@@H](CC(C)C)C(=O)N[C@H](C(=O)NCC(N)=O)CSCC(=O)N[C@@H](Cc2ccc(O)cc2)C(=O)N(C)[C@@H](C)C(=O)N[C@@H](CC(N)=O)C(=O)N2CCC[C@H]2C(=O)N[C@@H](CNC(=O)NC(C)=O)C(=O)N[C@@H](CC(C)C)C(=O)N2C[C@H](O)C[C@H]2C(=O)N[C@@H](Cc2c[nH]c3ccccc23)C(=O)N[C@@H](CCNC(N)=O)C(=O)N[C@@H](Cc2cn(CC(=O)O)c3ccccc23)C(=O)N1C [Example 1030] ({CH2CO}-Y[NMeA]NP[Dap](X1)L[Hyp]W[Dab(CONH2)][Trp(1-CH2COOH)][NMeNle][NMeNle]LCG-NH2; thioether N-14)
4.7 | CCCC[C@H]1C(=O)N(C)[C@@H](CCCC)C(=O)N[C@@H](CC(C)C)C(=O)N[C@H](C(=O)NCC(N)=O)CSCC(=O)N[C@@H](Cc2ccc(O)cc2)C(=O)N(C)[C@@H](C)C(=O)N[C@@H](CC(N)=O)C(=O)N2CCC[C@H]2C(=O)N[C@@H](CNC(=O)NC(C)=O)C(=O)N[C@@H](CC(C)C)C(=O)N2C[C@H](O)C[C@H]2C(=O)N[C@@H](Cc2c[nH]c3ccccc23)C(=O)N[C@@H](CCNC(=O)NC(C)=O)C(=O)N[C@@H](Cc2cn(CC(=O)O)c3ccccc23)C(=O)N1C [Example 1031] ({CH2CO}-Y[NMeA]NP[Dap](X1)L[Hyp]W[Dab](X1)[Trp(1-CH2COOH)][NMeNle][NMeNle]LCG-NH2; thioether N-14)
0.74 | CCCC[C@H]1C(=O)N(C)[C@@H](CCCC)C(=O)N[C@@H](CC(C)C)C(=O)N[C@H](C(=O)NCC(N)=O)CSCC(=O)N[C@@H](Cc2ccc(O)cc2)C(=O)N(C)[C@@H](C)C(=O)N[C@@H](CC(N)=O)C(=O)N2CCC[C@H]2C(=O)N[C@@H](CNC(=O)N(C)C)C(=O)N[C@@H](CC(C)C)C(=O)N2C[C@H](O)C[C@H]2C(=O)N[C@@H](Cc2c[nH]c3ccccc23)C(=O)N[C@@H](CCNC(=O)N(C)C)C(=O)N[C@@H](Cc2cn(CC(=O)O)c3ccccc23)C(=O)N1C [Example 1032] ({CH2CO}-Y[NMeA]NP[Dap]([CO-NMe2])L[Hyp]W[Dab]([CO-NMe2])[Trp(1-CH2COOH)][NMeNle][NMeNle]LCG-NH2; thioether N-14)
7.6 | CCCCCCCNC(=O)NCC[C@@H]1NC(=O)[C@H](Cc2c[nH]c3ccccc23)NC(=O)[C@@H]2C[C@@H](O)CN2C(=O)[C@H](CC(C)C)NC(=O)[C@H](CNC(=O)NCCCCCCC)NC(=O)[C@@H]2CCCN2C(=O)[C@H](CC(N)=O)NC(=O)[C@H](C)N(C)C(=O)[C@H](Cc2ccc(O)cc2)NC(=O)CSC[C@@H](C(=O)NCC(N)=O)NC(=O)[C@H](CC(C)C)NC(=O)[C@H](CCCC)N(C)C(=O)[C@H](CCCC)N(C)C(=O)[C@H](Cc2cn(CC(=O)O)c3ccccc23)NC1=O [Example 1033] ({CH2CO}-Y[NMeA]NP[Dap]([CO-NH(heptyl)])L[Hyp]W[Dab]([CO-NH(heptyl)])[Trp(1-CH2COOH)][NMeNle][NMeNle]LCG-NH2; thioether N-14)
8.3 | CCCCCCCNC(=O)NCC[C@@H]1NC(=O)[C@H](Cc2c[nH]c3ccccc23)NC(=O)[C@@H]2C[C@@H](O)CN2C(=O)[C@H](CC(C)C)NC(=O)[C@H](CNC(=O)NCCCCCCC)NC(=O)[C@@H]2CCCN2C(=O)[C@H](CC(N)=O)NC(=O)[C@H](C)N(C)C(=O)[C@H](Cc2ccc(O)cc2)NC(=O)CSC[C@@H](C(=O)NCC(N)=O)NC(=O)[C@H](CC(C)C)NC(=O)[C@H](CCCC)N(C)C(=O)[C@H](CCCC)N(C)C(=O)[C@H](Cc2cn(CC(=O)O)c3ccccc23)NC1=O [Example 1035] ({CH2CO}-Y[NMeA]NP[Dap]([CO-NH(heptyl)])L[Hyp]W[Dab]([CO-NH(heptyl)])[Trp(1-CH2COOH)][NMeNle][NMeNle]LCG-NH2; thioether N-14)
1.4 | CCCC[C@H]1C(=O)N(C)[C@@H](CCCC)C(=O)N[C@@H](CC(C)C)C(=O)N[C@H](C(=O)NCC(N)=O)CSCC(=O)N[C@@H](Cc2ccc(O)cc2)C(=O)N(C)[C@@H](C)C(=O)N[C@@H](CC(N)=O)C(=O)N2CCC[C@H]2C(=O)N[C@@H](CNC(=O)N(C)OC)C(=O)N[C@@H](CC(C)C)C(=O)N2C[C@H](O)C[C@H]2C(=O)N[C@@H](Cc2c[nH]c3ccccc23)C(=O)N[C@@H](CCNC(=O)N(C)OC)C(=O)N[C@@H](Cc2cn(CC(=O)OC)c3ccccc23)C(=O)N1C [Example 1036] ({CH2CO}-Y[NMeA]NP[Dap]([CO-N(Me)OMe])L[Hyp]W[Dab]([CO-N(Me)OMe])[Trp(1-CH2CO2Me)][NMeNle][NMeNle]LCG-NH2; thioether N-14)

Compound | IC50 [nM]
CCCC[C@H]1C(=O)N(C)[C@@H](CCCC)C(=O)N[C@@H](CC(C)C)C(=O)N[C@H](C(=O)NCC(N)=O)CSCC(=O)N[C@@H](Cc2ccc(O)cc2)C(=O)N(C)[C@@H](C)C(=O)N[C@@H](CC(N)=O)C(=O)N2CCC[C@H]2C(=O)N[C@@H](CNC(=O)NC(c2ccccc2)c2ccccc2)C(=O)N[C@@H](CC(C)C)C(=O)N2C[C@H](O)C[C@H]2C(=O)N[C@@H](Cc2c[nH]c3ccccc23)C(=O)N[C@@H](CCNC(=O)NC(c2ccccc2)c2ccccc2)C(=O)N[C@@H](Cc2cn(CC(=O)O)c3ccccc23)C(=O)N1C [Example 1037] ({CH2CO}-Y[NMeA]NP[Dap]([CO-NHCHPh2])L[Hyp]W[Dab]([CO-NHCHPh2])[Trp(1-CH2COOH)][NMeNle][NMeNle]LCG-NH2; thioether N-14) | 5.1
CCCC[C@H]1C(=O)N(C)[C@@H](CCCC)C(=O)N[C@@H](CC(C)C)C(=O)N[C@H](C(=O)NCC(N)=O)CSCC(=O)N[C@@H](Cc2ccc(O)cc2)C(=O)N(C)[C@@H](C)C(=O)N[C@@H](CC(N)=O)C(=O)N2CCC[C@H]2C(=O)N[C@@H](CNC(=O)NCCc2ccc3c(c2)OCO3)C(=O)N[C@@H](CC(C)C)C(=O)N2C[C@H](O)C[C@H]2C(=O)N[C@@H](Cc2c[nH]c3ccccc23)C(=O)N[C@@H](CCN)C(=O)N[C@@H](Cc2cn(CC(=O)O)c3ccccc23)C(=O)N1C [Example 1039] ({CH2CO}-Y[NMeA]NP[Dap]([CO-NHCH2CH2Ph(3,4-OCH2O)])L[Hyp]W[Dab][Trp(1-CH2COOH)][NMeNle][NMeNle]LCG-NH2; thioether N-14) | 1.5
CCCC[C@H]1C(=O)N(C)[C@@H](CCCC)C(=O)N[C@@H](CC(C)C)C(=O)N[C@H](C(=O)NCC(N)=O)CSCC(=O)N[C@@H](Cc2ccc(O)cc2)C(=O)N(C)[C@@H](C)C(=O)N[C@@H](CC(N)=O)C(=O)N2CCC[C@H]2C(=O)N[C@@H](CNC(=O)NCC(c2ccccc2)c2ccccc2)C(=O)N[C@@H](CC(C)C)C(=O)N2C[C@H](O)C[C@H]2C(=O)N[C@@H](Cc2c[nH]c3ccccc23)C(=O)N[C@@H](CCN)C(=O)N[C@@H](Cc2cn(CC(=O)O)c3ccccc23)C(=O)N1C [Example 1040] ({CH2CO}-Y[NMeA]NP[Dap]([CO-NHCH2CHPh2])L[Hyp]W[Dab][Trp(1-CH2COOH)][NMeNle][NMeNle]LCG-NH2; thioether N-14) | 3

Reference: patent US20220251141A1, “IMMUNOMODULATORS” (Bristol-Myers Squibb Company, priority 2019, published 2022)
